From ChEMBL document CHEMBL6109111
Active and inactive are the calls of the source. The rule behind the calls is not given here.

Test system: Mus musculus
Assay: Inhibition of morphine-mediated intestinal motility in male Kunming mouse assessed as propulsion function at 4 mg/kg, ip pretreated with compound for 30 mins followed by morphine addition and measured after 30 mins by charcoal gavage based Intestinal motility assay
Format: functional, organism-based
Settings: time 60.0 min

For `C=CCN1CC[C@]23c4c5ccc(O)c4O[C@H]2C(=O)CC[C@@]3(O)[C@H]1C5`, the Activity was “Active”.
